In assay [1] the test system is absolute ethanol-induced ulcer in Wistar rats. In words: Anti-ulcerogenic activity, absolute ethanol-induced ulcer model. As to conditions: oral 100 mg/kg; for % Protection: % protection of control ulcer, 100 mg/kg. It counts as in vivo. Here is the method:
Evaluation of the anti-ulcerogenic activity was carried out using an absolute ethanol-induced ulcer model according to published methods. About 30 Wistar rats were divided into 5 groups, each of 6 rats. Group 1 received the vehicle and served as control group. Group 2 received ranitidine (100 mg/kg) and served as a standard group. […] Rats of all groups were fasted for 24 hours, and then all medications were administered orally. […] The stomachs were rapidly removed, opened along their greater curvature, and gently rinsed under running tap water. The number of lesions in the glandular part of the stomach was measured under an illuminated magnifying microscope (10×). Long lesions were counted and their lengths were measured. Petechial lesions were counted, and then each five petechial lesions were taken as 1 mm of ulcer. The mucosal lesions were quantified by the scoring system (0-5), where 0=no damage; 1=Local edema and inflammation without ulcers; 2=One ulcer without inflammation; 3=one to two ulcers with inflammation & lesion diameter <1 cm; 4=More than two ulcers with lesion diameter 1-2 cm; 5=Sever ulceration with lesion diameter >2 cm. To calculate the ulcer index (mm), the sum of the total length of long ulcers and petechial lesions in each group of rats was divided by its number. The curative ratio was determined according to the formula: % Protection of control ulcer=Control UI−Test UI/Control UI×100.

The subject of assay [2] is H. pylori clinical isolates and reference strain ATCC 43504. In words: Disk diffusion test, anti-Helicobacter pylori activity. The class given is cell-based. Further details: key to Inhibition Zone: *R: Resistant.

Take `CNC(=C[N+](=O)[O-])NCCSCc1ccc(CN(C)C)o1` [Ranitidine]: the results for the “% Protection” value in assay [1] and in assay [1] (listed as ranitidine) were 46.2% and “about 46.2%”, respectively. The Score in assay [1] (mucosal lesion scoring system 0-5) is reported as 2.2.

As for `CC1(C)S[C@@H]2[C@H](NC(=O)[C@H](N)c3ccc(O)cc3)C(=O)N2[C@H]1C(=O)O` [Amoxicillin], the “Inhibition Zone” value is given as 30 mm in assay [2] (H. pylori strain ATCC 43504, disk 30 μg); “R*” in assay [2] (H. pylori strain KA01, disk 30 μg); “resistant” in assay [2] (H. pylori strain KA01, disk 30 μg, listed as amoxicillin); 20 mm in assay [2] (H. pylori strain KA02, disk 30 μg); 21 mm in assay [2] (H. pylori strain KA03, disk 30 μg); 20 mm in assay [2] (H. pylori strain KA04, disk 30 μg). Further, the “Inhibition Zone” value in assay [2] (H. pylori strain KA05, disk 30 μg) is 22 mm; in assay [2] (H. pylori strain KA07, disk 30 μg), 25 mm; in assay [2] (H. pylori strain KAO6, disk 30 μg) it was 23 mm. In addition, the “Susceptibility of H. pylori isolates by disc diffusion” value in assay [2] (all isolates with the exception of isolate KA01) is “sensitive”.

With `CC[C@H]1OC(=O)[C@H](C)[C@@H](O[C@H]2C[C@@](C)(OC)[C@@H](O)[C@H](C)O2)[C@H](C)[C@@H](O[C@@H]2O[C@H](C)C[C@H](N(C)C)[C@H]2O)[C@](C)(O)C[C@@H](C)C(=O)[C@H](C)[C@@H](O)[C@]1(C)O` [Erythromycin], the “Inhibition Zone” value is 28 mm in assay [2] (H. pylori strain ATCC 43504, disk 15 μg); 19 mm in assay [2] (H. pylori strain KA01, disk 15 μg); 23 mm in assay [2] (H. pylori strain KA02, disk 15 μg); 22 mm in assay [2] (H. pylori strain KA03, disk 15 μg); 22 mm in assay [2] (H. pylori strain KA04, disk 15 μg); 20 mm in assay [2] (H. pylori strain KA05, disk 15 μg). Besides, the “Inhibition Zone” value came out at 23 mm in assay [2] (H. pylori strain KA07, disk 15 μg) and 24 mm in assay [2] (H. pylori strain KAO6, disk 15 μg). Moreover, the “Susceptibility of H. pylori isolates by disc diffusion” value in assay [2] (all of the isolates of H. pylori) is “sensitive”.

These data come from patent publication US9192639B1, “Convolvulus extract for treatment of peptic ulcer and helicobacter pylori infection” (KING SAUD UNIVERSITY, priority 2014, dated 2015).
